Data set [1] has as its target T1, Quinolone resistance protein NorA (Staphylococcus aureus) (UniProt P0A0J7).
T1 sequence (whole entry): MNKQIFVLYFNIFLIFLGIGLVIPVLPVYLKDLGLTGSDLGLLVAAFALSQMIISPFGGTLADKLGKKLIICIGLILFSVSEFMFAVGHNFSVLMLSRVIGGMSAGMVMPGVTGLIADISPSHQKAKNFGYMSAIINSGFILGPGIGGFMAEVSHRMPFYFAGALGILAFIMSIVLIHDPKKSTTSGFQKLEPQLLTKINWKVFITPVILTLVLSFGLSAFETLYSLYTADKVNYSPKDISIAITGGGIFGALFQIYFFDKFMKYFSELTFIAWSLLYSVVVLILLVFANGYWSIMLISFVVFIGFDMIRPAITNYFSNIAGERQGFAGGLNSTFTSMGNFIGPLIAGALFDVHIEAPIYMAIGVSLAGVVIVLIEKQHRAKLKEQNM
Put plainly: Inhibition of NorA in Staphylococcus aureus SA-1199B assessed as potentiation of ciprofloxacin -mediated antibacterial activity by measuring maximal reduction in ciprofloxacin MIC.

Data set [2] concerns Staphylococcus aureus. Put plainly: Antibacterial activity against Staphylococcus aureus SA-1199B. Type of data set: functional.
Data set [3] concerns Staphylococcus aureus. Put plainly: Antibacterial activity against Staphylococcus aureus ATCC 25923. The class given is functional.
Data set [4] is described as follows: Toxicity in brine shrimp assessed as mortality at 1 mg/ml. The settings on record: artemia salina, read-out: Activity.
The target in data set [5] is T1, Quinolone resistance protein NorA (Staphylococcus aureus). Put plainly: Inhibition of NorA in staphylococcus aureus SA-1199B assessed as increase in fluorescence emission of ethidium bromide accumulation for 25 mins by fluorometric assays.
The target is the same in data set [6]. Description: Inhibition of NorA in staphylococcus aureus SA-1199B assessed as ethidium bromide accumulation.
For data set [7] the target is unchanged. Put plainly: Inhibition of NorA in Staphylococcus aureus SA-1199B assessed as potentiation of norfloxacin-mediated antibacterial activity by measuring fold reduction in norfloxacin MIC.
Data set [8] shares this target. Put plainly: Inhibition of NorA in Staphylococcus aureus SA-1199B assessed as potentiation of norfloxacin-mediated antibacterial activity by measuring fold reduction in ciprofloxacin MIC.
Data set [9] shares this target. Description: Inhibition of NorA in Staphylococcus aureus SA-1199B assessed as potentiation of norfloxacin-mediated antibacterial activity by measuring maximal reduction in norfloxacin MIC.

≈ marks a conversion by molar mass, not a printed value. Calls of active or inactive are those of the source. No cut-off for these calls is given here.

The MIC is the lowest concentration that inhibits growth of the organism. Lower therefore signals greater potency.

On to `O=C1NC(=O)/C(=C/c2ccc(F)cc2)N1`, for which the MEC in data set [1] and in [9] was 64 µg/mL each time. For the same compound, the MIC in the data set with Staphylococcus aureus [2] and against Staphylococcus aureus [3] was 512 µg/mL (≈ 2480 µM) throughout. The mortality at 1 mg/ml in [4] stood at 47%. Moreover, the inhibition result in data set [5] and in data set [6] was “Active” each time. The figures for the fold change (FC) in data set [7] and in [8] were 6.4 and 3.2, respectively.

For `CN(C)CCCN1c2ccccc2Sc2ccc(Cl)cc21`, the inhibition result in data set [5] is “Active”.

As for `O=C1NC(=O)/C(=C/c2cccs2)N1`, in the data set with Staphylococcus aureus [2], the MIC was at least 1020 µg/mL.

In the data set with Staphylococcus aureus [2], `O=C1NC(=S)N/C1=C\c1cccs1` gave an MIC of at least 1020 µg/mL.

In the data set on Staphylococcus aureus [2], `CCn1cc(C(=O)O)c(=O)c2cc(F)c(N3CCNCC3)cc21` [NORFLOXACIN] displayed an MIC of 64 µg/mL (≈ 200 µM).

In the data set with Staphylococcus aureus [2], `O=C1NC(=O)/C(=C/c2ccccn2)N1` displayed an MIC of at least 1020 µg/mL.

In the data set with Staphylococcus aureus [2], `O=C1NC(=S)N/C1=C\c1ccccn1` gave an MIC of at least 1020 µg/mL.

With `O=C1NC(=S)N/C1=C\c1ccc(F)cc1`, the MEC in [1] and in data set [9] was 64 µg/mL throughout. Further, the MIC in the data set on Staphylococcus aureus [2] and with Staphylococcus aureus [3] was 512 µg/mL (≈ 2300 µM) in each case. Moreover, the mortality at 1 mg/ml in [4] amounted to 90%. Further, the inhibition result in [5] and in data set [6] was “Active” throughout. In addition, the fold change (FC) in data set [7] was 4; in data set [8], 3.2.

Values taken from ChEMBL document CHEMBL4673276, “Inhibition of the NorA efflux pump of S. aureus by (Z)-5-(4-Fluorobenzylidene)-Imidazolidines” (Bioorg Med Chem Lett, 2021).
